# Laboratory results taken from patent publication US20230090255A1, “MAGL INHIBITOR, PREPARATION METHOD THEREFOR AND USE THEREOF” (LUNAN PHARMACEUTICAL GROUP CORPORATION, priority 2019, published 2023).
# Marks after values point to notes of the source that are not given here.
# Test system: reserpine-induced mice depression
# Assay: Reserpine-induced mice depression
# Assay type: in vivo, ICR mouse
# Set-up: Awakening / Finger contact / Head touch / Fear / Autonomic activity / Eyelid closure / Upright: scale not given here
# Method: • Species: ICR mouse • Microbiological level: SPF • Quantity and sex of the animals purchased: male: 75; female: 75 • Quantity and sex of the animals used: male: 75; female: 75 • Body weight: 13-18 g when accepted
# Group design: there were 50 pieces for each batch of animals and 3 batches in total; each batch of animals were randomly divided into 5 groups; low, middle and high-dose groups of the samples for test, blank control group and model group; a sample for test was tested per batch.
# 3.1 Animals were administrated via subcutaneous injection per day with doses of 4, 8 and 16 mg/kg for 6 d in total. 2 h later after the final administration, each animal was subcutaneously injected with 4 mg/kg reserpine except the blank control group; afterwards, indicators, such as, awakening, finger contact, fear, head touch, autonomic activity, upright and eyelid closure were determined 2 h later.
# Data statistics and analysis were completed via a computer by SPSS 17.0 software and office 2016, and data statistics was inspected by Kruskal-Wallis. If the Kruskal-Wallis inspection result is significant ((P<0.05), multiple comparison inspection is further performed by a Mann-Whitney U nonparametric test method.
# [1] = high dose 16 mg/kg sc 6 d, 2 h after reserpine 4 mg/kg
# [2] = low dose 4 mg/kg sc 6 d, 2 h after reserpine 4 mg/kg
# [3] = middle dose 8 mg/kg sc 6 d, 2 h after reserpine 4 mg/kg
smiles,measurement,setting,value
O=C(Nc1cccc(Cl)c1)C1CCN(C(=O)c2cccc(O)c2)CC1 [MAGLZ-II-11],effect on reserpine-induced depression (conclusion),"4, 8 and 16 mg/kg sc 6 d",has a certain effect
same,Autonomic activity,[1],1.8±1.66* *
same,Awakening,[1],3.2±1.33
same,Eyelid closure,[1],2±1.26
same,Fear,[1],0.2±0.60
same,Finger contact,[1],2±1.79
same,Head touch,[1],2.6±1.56
same,Upright,[1],1±1.61* *
same,Autonomic activity,[2],0.8±1.60
same,Awakening,[2],3±1.61
same,Eyelid closure,[2],1.2±0.98
same,Fear,[2],0±0
same,Finger contact,[2],1.6±1.50
same,Head touch,[2],1±1.34
same,Autonomic activity,[3],0.8±1.60
same,Awakening,[3],2.6±1.56
same,Eyelid closure,[3],1.4±1.28
same,Fear,[3],0±0
same,Finger contact,[3],1.8±1.66
same,Head touch,[3],1.8±1.40
